The structures appear in SMILES notation. Where only a bound is given, the exact number is not on record here.

The first data set concerns HCT116 cells. Put plainly: In vitro cytotoxicity measured by the cell colony formation assay. It is filed as cell-based. As to conditions: HCT116 cells, 72 h drug incubation, colonies counted after 7 days; ID50 = drug concentration producing 50% inhibition of colony formation; read-out: IN VITRO ID 50 (nm) HCT116. The method, boiled down: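 Colony-forming survival was scored 7 days after a 72 h, 37 °C compound exposure followed by washout into fresh medium.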
As to `CCC(C)(C)OC(=O)N[C@@H](c1ccco1)[C@@H](O)C(=O)O[C@H]1C[C@@]2(O)[C@@H](OC(=O)c3ccccc3)C3[C@](C)(C(=O)[C@H](O)C(=C1C)C2(C)C)[C@@H](OC(=O)Nc1ccccc1)C[C@H]1OC[C@@]31OC(C)=O` (stereo partly drawn) [Compound 6399], the IC50 is less than 10 nM. On to `CCC(C)(C)OC(=O)N[C@@H](c1ccco1)[C@@H](O)C(=O)O[C@H]1C[C@@]2(O)[C@@H](OC(=O)c3ccccc3)C3[C@](C)(C(=O)[C@H](O)C(=C1C)C2(C)C)[C@@H](OC(=O)Nc1ccc(F)c(F)c1)C[C@H]1OC[C@@]31OC(C)=O` (stereo partly drawn) [Compound 6404], for which the IC50 was less than 10 nM. Still for that read-out and setting: under `CCNC(=O)O[C@H]1C[C@H]2OC[C@@]2(OC(C)=O)C2[C@H](OC(=O)c3ccccc3)[C@]3(O)C[C@H](OC(=O)[C@H](O)[C@@H](NC(=O)OC(C)(C)C)c4ccco4)C(C)=C([C@@H](O)C(=O)[C@@]21C)C3(C)C` (stereo partly drawn) [Compound 6696] stands less than 1 nM.

The same data set, now with this note: HCT116 cells, 72 h incubation with drug, colonies counted after 7 days; ID50 = drug concentration producing 50% inhibition of colony formation; read-out: IN VITRO ID 50 (nm) HCT116.
With `CCC(C)(C)OC(=O)N[C@@H](c1ccco1)[C@@H](O)C(=O)O[C@H]1C[C@@]2(O)[C@@H](OC(=O)c3ccccc3)C3[C@](C)(C(=O)[C@H](O)C(=C1C)C2(C)C)[C@@H](OC(=O)OCc1ccccc1)C[C@H]1OC[C@@]31OC(C)=O` (stereo partly drawn) [Compound 6246], the IC50 is less than 1 nM. On the same count and under the same terms, with `CCOC(=O)O[C@H]1C(=O)[C@@]2(C)C([C@H](OC(=O)c3ccccc3)[C@]3(O)C[C@H](OC(=O)[C@H](O)[C@@H](NC(=O)C(C)C)c4ccco4)C(C)=C1C3(C)C)[C@]1(OC(C)=O)CO[C@@H]1C[C@@H]2O` (stereo partly drawn) [Compound 6466] the figure was less than 10 nM; with `C/C=C/C(=O)N[C@@H](c1cccs1)[C@@H](O)C(=O)O[C@H]1C[C@@]2(O)[C@@H](OC(=O)c3ccccc3)C3[C@](C)(C(=O)[C@H](O)C(=C1C)C2(C)C)[C@@H](OC(=O)OCc1ccccc1)C[C@H]1OC[C@@]31OC(C)=O` (stereo partly drawn) [Compound 6566], less than 10 nM.

The data set is the same for the next values; noted with them: HCT116 colony formation; 72 h drug incubation, colonies counted after 7 days; Example 5, C-7 ester/C-10 hydroxy taxanes; read-out: IN VITRO ID 50 (nm) HCT116.
Take `CCC(=O)O[C@H]1C[C@H]2OC[C@@]2(OC(C)=O)C2[C@H](OC(=O)c3ccccc3)[C@]3(O)C[C@H](OC(=O)[C@H](O)[C@@H](NC(=O)OC(C)(C)CC)c4ccco4)C(C)=C([C@@H](O)C(=O)[C@@]21C)C3(C)C` (stereo partly drawn) [Compound 6212]: the IC50 is less than 1 nM. The same measure, in the same setting: with `CCC(C)(C)OC(=O)N[C@@H](c1ccco1)[C@@H](O)C(=O)O[C@H]1C[C@@]2(O)[C@@H](OC(=O)c3ccccc3)C3[C@](C)(C(=O)[C@H](O)C(=C1C)C2(C)C)[C@@H](OC(=O)C(C)C)C[C@H]1OC[C@@]31OC(C)=O` (stereo partly drawn) [Compound 6252] the figure was less than 1 nM; with `CCCC(=O)O[C@H]1C[C@H]2OC[C@@]2(OC(C)=O)C2[C@H](OC(=O)c3ccccc3)[C@]3(O)C[C@H](OC(=O)[C@H](O)[C@@H](NC(=O)OC(C)(C)CC)c4ccco4)C(C)=C([C@@H](O)C(=O)[C@@]21C)C3(C)C` (stereo partly drawn) [Compound 6272], less than 1 nM. Still for that read-out and setting: with `CCC(C)(C)OC(=O)N[C@@H](c1ccco1)[C@@H](O)C(=O)O[C@H]1C[C@@]2(O)[C@@H](OC(=O)c3ccccc3)C3[C@](C)(C(=O)[C@H](O)C(=C1C)C2(C)C)[C@@H](OC(=O)CC(C)C)C[C@H]1OC[C@@]31OC(C)=O` (stereo partly drawn) [Compound 6282] the figure was less than 10 nM; with `CC(=O)O[C@@]12CO[C@@H]1C[C@H](OC(=O)C(C)C)[C@@]1(C)C(=O)[C@H](O)C3=C(C)[C@@H](OC(=O)[C@H](O)[C@@H](NC(=O)OC(C)(C)C)c4cccs4)C[C@@](O)([C@@H](OC(=O)c4ccccc4)C12)C3(C)C` (stereo partly drawn) [Compound 6333], less than 1 nM; with `CCCCC(=O)O[C@H]1C[C@H]2OC[C@@]2(OC(C)=O)C2[C@H](OC(=O)c3ccccc3)[C@]3(O)C[C@H](OC(=O)[C@H](O)[C@@H](NC(=O)OC(C)(C)CC)c4ccco4)C(C)=C([C@@H](O)C(=O)[C@@]21C)C3(C)C` (stereo partly drawn) [Compound 6343], less than 10 nM. On the same count and under the same terms, with `CCC(=O)O[C@H]1C[C@H]2OC[C@@]2(OC(C)=O)C2[C@H](OC(=O)c3ccccc3)[C@]3(O)C[C@H](OC(=O)[C@H](O)[C@@H](NC(=O)OC(C)(C)C)c4nccs4)C(C)=C([C@@H](O)C(=O)[C@@]21C)C3(C)C` (stereo partly drawn) [Compound 6363] the figure was less than 10 nM; with `CCC(=O)O[C@H]1C[C@H]2OC[C@@]2(OC(C)=O)C2[C@H](OC(=O)c3ccccc3)[C@]3(O)C[C@H](OC(=O)[C@H](O)[C@@H](NC(=O)OC(C)(C)CC)c4ccco4)C(C)=C([C@@H](O)C(=O)[C@@]21C)C3(C)C` (stereo partly drawn) [Compound 6424], 21.7 nM.

Take `C/C=C/C(=O)O[C@H]1C[C@H]2OC[C@@]2(OC(C)=O)C2[C@H](OC(=O)c3ccccc3)[C@]3(O)C[C@H](OC(=O)[C@H](O)[C@@H](NC(=O)OC(C)(C)C)c4cccs4)C(C)=C([C@@H](O)C(=O)[C@@]21C)C3(C)C` (stereo partly drawn) [Compound 6686]: the IC50 was less than 1 nM.

The data set is the same for the next values; noted with them: HCT116 colony formation; 72 h drug incubation, colonies counted after 7 days; Example 10, C-10 ester/C-7 hydroxy taxanes; read-out: IN VITRO ID 50 (nm) HCT116.
On to `CCC(=O)O[C@H]1C(=O)[C@@]2(C)C([C@H](OC(=O)c3ccccc3)[C@]3(O)C[C@H](OC(=O)[C@H](O)[C@@H](NC(=O)OC(C)(C)CC)c4ccco4)C(C)=C1C3(C)C)[C@]1(OC(C)=O)CO[C@@H]1C[C@@H]2O` (stereo partly drawn) [Compound 6522], for which the IC50 was less than 1 nM.

Still in this data set, the particulars now being: HCT116 colony formation; 72 h drug incubation, colonies counted after 7 days; Example 15, C-7 substituted acetate/C-10 hydroxy taxanes; read-out: IN VITRO ID 50 (nm) HCT116.
As for `CCC(C)(C)OC(=O)NC(c1ccco1)C(O)C(=O)OC1CC2(O)C(OC(=O)c3ccccc3)C3C4(OC(C)=O)COC4CC(OC(=O)COC)C3(C)C(=O)C(O)C(=C1C)C2(C)C` (stereo not drawn) [Compound 6226, N-Debenzoyl-N-tert-amyloxycarbonyl-3′-desphenyl-3′-(2-furyl)-10-deacetyl-7-methoxyacetyl taxol], the IC50 was less than 1 nM.

With `COCC(=O)O[C@H]1C[C@H]2OC[C@@]2(OC(C)=O)C2[C@H](OC(=O)c3ccccc3)[C@]3(O)C[C@H](OC(=O)[C@H](O)[C@@H](NC(=O)OC(C)(C)C)c4ccco4)C(C)=C([C@@H](O)C(=O)[C@@]21C)C3(C)C` (stereo partly drawn) [Compound 6326], the IC50 is less than 1 nM.

In the case of `CCC(C)(C)OC(=O)N[C@@H](c1ccco1)[C@@H](O)C(=O)O[C@H]1C[C@@]2(O)[C@@H](OC(=O)c3ccccc3)C3[C@](C)(C(=O)[C@H](O)C(=C1C)C2(C)C)[C@@H](OC(=O)COC(C)=O)C[C@H]1OC[C@@]31OC(C)=O` (stereo partly drawn) [Compound 6353], the IC50 was less than 1 nM.

Staying with this data set, now noted: HCT116 colony formation; 72 h drug incubation, colonies counted after 7 days; Example 20, C-10 substituted acetate/C-7 hydroxy taxanes; read-out: IN VITRO ID 50 (nm) HCT116.
Regarding `CCC(C)(C)OC(=O)NC(c1ccco1)C(O)C(=O)OC1CC2(O)C(OC(=O)c3ccccc3)C3C4(OC(C)=O)COC4CC(O)C3(C)C(=O)C(OC(=O)COC)C(=C1C)C2(C)C` (stereo not drawn) [Compound 6515, N-Debenzoyl-N-tert-amyloxycarbonyl-3′-desphenyl-3′-(2-furyl)-10-methoxyacetyl taxol], the IC50 was less than 1 nM.

In the case of `CCC(C)(C)OC(=O)N[C@@H](c1ccco1)[C@@H](O)C(=O)O[C@H]1C[C@@]2(O)[C@@H](OC(=O)c3ccccc3)C3[C@](C)(C(=O)[C@H](OC(=O)COC(C)=O)C(=C1C)C2(C)C)[C@@H](O)C[C@H]1OC[C@@]31OC(C)=O` (stereo partly drawn) [Compound 6577], the IC50 is less than 1 nM.

The data set is the same for the next values; noted with them: Homo sapiens, HCT-116; HCT116 colony formation; 72 h drug incubation, colonies counted after 7 days; Example 5, C-7 ester/C-10 hydroxy taxanes; read-out: IN VITRO ID 50 (nm) HCT116.
Turning to `CC(=O)O[C@@]12CO[C@@H]1C[C@H](O)[C@@]1(C)C(=O)[C@H](O)C3=C(C)[C@@H](OC(=O)[C@H](O)[C@@H](NC(=O)OC(C)(C)C)c4ccccc4)C[C@@](O)([C@@H](OC(=O)c4ccccc4)[C@H]21)C3(C)C` [docetaxel, reference compound], the IC50 was 0.6 nM. Same read-out and setting: with `CC(=O)O[C@H]1C(=O)[C@@]2(C)[C@H]([C@H](OC(=O)c3ccccc3)[C@]3(O)C[C@H](OC(=O)[C@H](O)[C@@H](NC(=O)c4ccccc4)c4ccccc4)C(C)=C1C3(C)C)[C@]1(OC(C)=O)CO[C@@H]1C[C@@H]2O` [taxol, paclitaxel, reference compound] the figure was 2.1 nM.

Tested on in another data set: not given
Assay: not given
As to conditions: intravenous, concentrations required to deliver therapeutic doses of paclitaxel; cited from earlier work.
With `CC(=O)OCC(COC(C)=O)OC(C)=O` [triacetin, glyceryl triacetate], the toxicity to mice entry was “toxic”.
